These results are taken from ChEMBL document CHEMBL3596164, “Inhibitory effects of hydroxylated cinnamoyl esters on lipid absorption and accumulation” (Bioorg Med Chem, 2015).

The structures appear in SMILES notation. Activity calls are given as the source filed them. No cut-off for these calls is given here. Bounds are passed on as bounds.

Series [1] deals with T1, Pancreatic triacylglycerol lipase (Sus scrofa) (UniProt P00591).
T1 sequence (whole entry): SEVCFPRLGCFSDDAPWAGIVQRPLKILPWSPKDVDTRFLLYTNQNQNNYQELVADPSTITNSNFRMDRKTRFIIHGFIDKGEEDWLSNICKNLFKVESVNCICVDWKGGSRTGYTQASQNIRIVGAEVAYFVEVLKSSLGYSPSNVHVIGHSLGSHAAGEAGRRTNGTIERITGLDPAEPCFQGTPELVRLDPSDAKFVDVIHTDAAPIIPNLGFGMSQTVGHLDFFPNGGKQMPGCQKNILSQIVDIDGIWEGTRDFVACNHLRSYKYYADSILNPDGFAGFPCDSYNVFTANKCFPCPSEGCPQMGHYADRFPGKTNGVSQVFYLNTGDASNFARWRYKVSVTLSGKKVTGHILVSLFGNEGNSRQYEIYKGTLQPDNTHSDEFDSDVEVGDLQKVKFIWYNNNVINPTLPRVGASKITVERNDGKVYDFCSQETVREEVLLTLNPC
As to the kind of experiment: Inhibition of pig pancreatic lipase at 30 uM after 10 mins by spectrophotometry relative to control.

The subject of another series is 3T3-L1. As to the kind of experiment: (§1) Antiobesity activity in mouse 3T3L1 cells assessed as suppression of DIM-stimulated lipid accumulation at 4 uM after 7 days by Oil Red O staining method relative to control. Format: functional.
Series [2] concerns the target T1, Pancreatic triacylglycerol lipase (Sus scrofa). As to the kind of experiment: Inhibition of pig pancreatic lipase after 10 mins by spectrophotometry relative to control.
Series [3] is described as follows: Cytotoxicity against mouse 3T3L1 cells at 1 to 4 uM after 7 days by MTT assay. It counts as cell-based. To be noted: 3t3-l1, 168 h.
Series [4] can be described thus: as §1. The note with it: 3T3-L1, 168 h. Format: functional.
A short description of series [5]: Antiobesity activity in mouse 3T3L1 cells assessed as suppression of DIM-stimulated lipid accumulation at 25 to 50 uM after 7 days by Oil Red O staining method relative to control. It counts as functional, 3T3-L1.
Series [6] deals with Mus musculus. In words: Reduction in plasma triglyceride level in corn oil-fed po dosed ddY mouse after 2 to 6 hrs relative to control. Format: functional, organism-based.
Series [7] concerns Mus musculus. As to the kind of experiment: Reduction in plasma triglyceride level in corn oil-fed ddY mouse at 30 mg/kg, po after 2 to 6 hrs relative to control. Format: functional. Further details: scale not given: the % may be the effect or the level left.
For series [8], the system named is Mus musculus. In words: Reduction in plasma triglyceride level in corn oil-fed ddY mouse at 150 mg/kg, po after 2 to 6 hrs relative to control. Format: functional. Further details: scale not given: the % may be the effect or the level left.

The inhibition is the drop in the measured response relative to a control, in per cent. On to `O=C(/C=C/c1ccc(O)cc1)OCCc1ccccc1`, for which the inhibition entry (in series [1]; in the series with 3T3-L1) was “inactive” throughout.

With `CCCCCCCCCCOC(=O)/C=C/c1ccc(O)cc1`, the inhibition result (in series [1]; with 3T3-L1) was “inactive” throughout.

For the compound `O=C(/C=C/c1ccc(O)c(O)c1)OCCCCCCc1ccccc1`, the inhibition is 54% in [1] and “Dose-dependent effect” in series [2]. The ED50 in series [2] was determined as 22 µM. Further, the Activity result in series [3] was “Non-toxic”. The inhibition at 4 µM in series [4] is 46%.

On to `O=C(/C=C/c1ccc(O)cc1)OCCCCCCc1ccccc1`, for which the inhibition entry (in [1]; in the series on 3T3-L1) was “inactive” each time.

Consider `CCCCCCCCCCOC(=O)/C=C/c1cccc(O)c1`, for which the inhibition entry (in series [1]; in the series on 3T3-L1) was “inactive” each time.

Take `CC(C)=CCC/C(C)=C/COC(=O)/C=C/c1ccc(O)c(O)c1` [GERANYL CAFFEATE]: in series [1], the inhibition is 62%. Further, the Activity entry in series [3] was “Non-toxic”. For the same compound, in series [4], the inhibition at 4 µM is 20%.

`O=C(/C=C/c1ccc(O)c(O)c1)OCCc1ccccc1` [CAFFEIC ACID PHENETHYL ESTER] gave an inhibition in series [1] of 62%. In [2], the ED50 came to 10 µM and the inhibition entry was “Dose-dependent effect”. For the same compound, the Activity result in series [3] is “Non-toxic”. Further, the inhibition at 4 µM in series [4] came out at 11%. Moreover, in [5], the “inhibition (INH)” value turned out to be 24%.

Take `CCCCCCCCCCOC(=O)/C=C/c1ccc(O)c(O)c1`: the inhibition is 38% in series [1] and “Dose-dependent effect” in series [2]. Also, in series [2], the ED50 was more than 40 µM. The Activity entry in the series on Mus musculus [6] was “Dose-dependent effect”; in the series with Mus musculus [7] it was 78%; in the series on Mus musculus [8], 69%; in series [3], “Non-toxic”. In addition, the inhibition at 4 µM in series [4] came out at 71%.

On to `CCCCCCCCCCOC(=O)/C=C/c1cc(O)c(O)c(O)c1`, for which the inhibition in series [1] was 92%; in series [2] it was “Dose-dependent effect”. This compound returned an ED50 in series [2] of 0.9 µM. Further, the Activity result in the series with Mus musculus [6] is “Dose-dependent effect”; with Mus musculus [7] it was 73%; in the series on Mus musculus [8], 57%. In addition, in [4], the inhibition at 4 µM stood at 84%.
